Measured values published in publication PMC2861366 (Biochemistry, 2010).
“Also recorded” adds a separate entry of the source.

Tests used:
[1] = tested on: χ subunit of DNA polymerase III holoenzyme; experiment: ITC binding to χ subunit; set-up: species or system E. coli; details: 25°C; for K, observed association equilibrium constant: buffer C (10 mM cacodylate, pH 7.0, 25% glycerol), 20 mM NaCl
PriA helicase = experiment: ITC binding to PriA helicase; set-up: species or system E. coli; details: 25°C; for binding detected by ITC (in words): 0.2 M NaCl, same protein and peptide concentrations as with WP9
[2] = tested on: χ subunit of DNA polymerase III holoenzyme; details: SSB prebound to ssDNA, low salt (5mM NaCl); cited from earlier work
[3] = buffer C, pH 7.0, 200 mM NaCl, WP9: averaged from two titrations
[4] = buffer T (10 mM Tris, pH 7.5, 10% glycerol), 20 mM NaCl
[5] = buffer C (10 mM cacodylate, pH 7.0, 25% glycerol), 20 mM NaCl

Substance	K, observed association equilibrium constant [1]	K, observed association equilibrium constant (PriA helicase; [3])	K, observed association equilibrium constant (PriA helicase; [4])	K, observed association equilibrium constant (PriA helicase; [5])	binding detected by ITC (in words) ([1]; 0.2 M NaCl, buffer C)	binding detected by ITC (in words) (PriA helicase; buffer C)	also measured
MDFDDDIPF [P9]	(1.6±0.4)×10^6 M^−1	(1.8±0.6)×10^5 M^−1	(2.0±0.3)×10^6 M^−1				
PSNEPPMDFDDDIPF [P15]	(1.5±0.2)×10^6 M^−1	(3.6±0.2)×10^5 M^−1	(1.6±0.4)×10^6 M^−1	(2.7±0.2)×10^6 M^−1			
SSB: E. coli single stranded DNA binding protein, homotetramer							binding detected by ITC (in words) ([1]; 0.02 M NaCl): too weak to determine its binding parameters; also recorded: Weak (see text); affinity of χ for SSB in the presence of ssDNA [2]: (7.4±1.0)×10^6 M^−1
WDFMDDPFID [WP9r]					No binding can be detected	No binding can be detected	
WMDFDDDISF [WP9-113]					No binding can be detected	No binding can be detected	
WP9: modified P9 peptide containing a Trp residue on the N terminal side (WMDFDDDIPF)	(1.2±0.1)×10^6 M^−1	(2.3±0.3)×10^5 M^−1		(1.6±0.2)×10^6 M^−1			
